Measurements published in patent publication US20080262054A1, “Pharmaceutical Composition Containing Thiazolidinedione Compound” (priority 2005, published 2008).
Where a name gives a salt, the structure may show the parent alone.

Assays:
[1] = Dissolution Rate Test 1 of Compound A (Test Example 1); assay type: physicochemical; settings: JP first fluid, 37° C.
Method: About 40 mg of Compound A or a monohydrate of Compound A and a formulation excipient [one excipient is selected from the following excipients: 377.6 mg of lactose (Borculo Domo Ingredients), 78.0 mg of croscarmellose sodium (Ac-Di-Sol, FMC International), 15.6 mg of hydroxypropyl cellulose (HPC-L, Nippon Soda Co., Ltd.), 5.2 mg of magnesium stearate (NOF Corp.) and 0.112 mg of yellow ferric oxide (Kishi Kasei Co., Ltd.)] were added to 200 ml of Japanese Pharmacopoeia (JP) first fluid (7.0 ml of hydrochloric acid and water added to 2.0 g of sodium chloride followed by dissolving and bringing to a volume of 100 ml, normally used as a test liquid that imitates disintegration and elution of chemicals in the stomach) followed by stirring with a stirrer at 37° C. in a 300 ml conical beaker. 10 ml-samples were collected after 30 minutes, 1 hour, 3 hours and 6 hours followed by filtration using Acrodisk LC13 (PVDF, Gelman Science, Inc.). After discarding the first 3 ml, the next 7 ml were removed into a test tube. 5 ml of the sample in the test tube was taken with a whole pipette and transferred to a test tube containing 2 ml of methanol followed by mixing.
(§1) Quantification was carried out using HPLC, and solubility was determined from a calibration curve generated according to the method described below.
The calibration curve was generated by preparing methanol standard solutions of Compound A at concentrations of 400, 100 and 20 μg/ml, followed by the addition of 5 ml of JP first fluid to 2 ml of each standard solution, mixing and quantifying by HPLC.
Analytical column: L-column ODS (4.6 mm ID×15 cm, Chemicals Evaluation and Research Institute, Japan)
Mobile phase: 0.01 mol/1 mixture of acetate buffer (pH 5.0) and acetonitrile (13:7)
Column temperature: 40° C.
Detector: Ultraviolet absorption spectrophotometer (measuring wavelength: 290 nm)

[2] = Dissolution Rate Test 2 of Compound A (Test Example 2); assay type: physicochemical; settings: JP first fluid, 37° C., subsequently to 1 hour (3 hours, 6 hours); FIG. 2
Method: Dissolution Rate Test 2 of 5-{4-[(6-methoxy-1-methyl-1H-benzimidazol-2-yl)methoxy]benzyl}thiazolidine-2,4-dione hydrochloride (Compound A) About 40 mg of Compound A or a monohydrate of Compound A and a formulation excipient [one excipient is selected from the following excipients: 23.9 mg of OPADRY II, 17.2 mg of polyvinyl alcohol (GOHSENOL GL-05, Nippon Synthetic Chemical Industry Co., Ltd.), and 23.9 mg of OPAGLOS 2] were added to 200 ml of Japanese Pharmacopoeia (JP) first fluid (7.0 ml of hydrochloric acid and water added to 2.0 g of sodium chloride followed by dissolving and bringing to a volume of 100 ml, normally used as a test liquid that imitates disintegration and elution of chemicals in the stomach) followed by stirring with a stirrer at 37° C. in a 300 ml conical beaker. 10 ml-samples were collected after 30 minutes, 1 hour, 3 hours and 6 hours followed by filtration using Acrodisk LC13 (PVDF, Gelman Science, Inc.). […]
as §1
The calibration curve was generated by preparing methanol standard solutions of Compound A at concentrations of 400, 100 and 20 μg/ml, followed by the addition of 5 ml of JP first fluid to 2 ml of each standard solution, mixing and quantifying by HPLC. […]

[3] = stirring, samples after 30 minutes, 1 hour, 3 hours and 6 hours, HPLC, FIG. 1

solubility [1, 3]	solubility ([1]; subsequently to 1 hour (3 hours, 6 hours))	solubility [2]	SMILES
decrease over time	decreased rapidly	decreased rapidly	COc1ccc2nc(COc3ccc(CC4SC(=O)NC4=O)cc3)n(C)c2c1 (stereo not shown) [Compound A, 5-{4-[(6-methoxy-1-methyl-1H-benzimidazol-2-yl)methoxy]benzyl}thiazolidine-2,4-dione hydrochloride]
extremely low	–	–	COc1ccc2nc(COc3ccc(CC4SC(=O)NC4=O)cc3)n(C)c2c1.Cl.O (stereo not shown) [monohydrate, 5-{4-[(6-methoxy-1-methyl-1H-benzimidazol-2-yl)methoxy]benzyl}thiazolidine-2,4-dione hydrochloride (Compound A) monohydrate]
